Test results taken from patent US9376425B2, “Heterocyclic compounds as MDM2 inhibitors for the treatment of cancer” (AMGEN INC., priority 2011, dated 2016).

Target: T1, human MDM2 (GST-hMDM2 1-188), interaction with biotinylated-p53 (1-83) (Homo sapiens, UniProt Q00987)
T1 construct: Amino acid residues 1-188 of human MDM2 were expressed; made in house; host or cells: Escherichia coli
Assay: improved HTRF assay (HTRF2 assay), inhibition of HDM2-p53 interaction
Format: binding
Conditions: 0.2 nM GST-hMDM2, 0.5 nM biotinylated-p53, 100 mM KF
How it was run: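 Time-resolved fluorescence (HTRF) read after >4 h equilibration with SA-XLent/anti-GST cryptate/KF detection reagents. Reaction: compound plus GST-hMDM2 for 20 min at room temperature, then E. coli-expressed biotinylated p53 residues 1-83 for 60 min, 2% DMSO final. Inhibition expressed versus nutlin-3.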

T1 sequence (Q00987 1-188): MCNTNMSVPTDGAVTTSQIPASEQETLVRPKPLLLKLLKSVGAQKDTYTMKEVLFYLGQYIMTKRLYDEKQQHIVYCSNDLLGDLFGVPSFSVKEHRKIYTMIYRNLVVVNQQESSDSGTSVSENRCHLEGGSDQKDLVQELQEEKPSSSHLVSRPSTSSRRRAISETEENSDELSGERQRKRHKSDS

SMILES | IC50 [nM]
CC(C)(C)NS(=O)(=O)C[C@H](C1CC1)N1C(=O)[C@@H](CC(=O)O)O[C@H](c2cccc(Cl)c2)[C@H]1c1ccc(Cl)cc1 (single isomer, unassigned) [Example 293, 2-((2R,5R,6R)-4-((S)-2-(N-(tert-Butyl)sulfamoyl)-1-cyclopropylethyl)-6-(3-chlorophenyl)-5-(4-chlorophenyl)-3-oxomorpholin-2-yl)acetic acid or 2-((2S,5R,6R)-4-((S)-2-(N-(tert-butyl)sulfamoyl)-1-cyclopropylethyl)-6-(3-chlorophenyl)-5-(4-chlorophenyl)-3-oxomorpholin-2-yl)acetic acid] | 1
CC[C@@H](CCS(=O)(=O)C(C)(C)C)N1C(=O)[C@@H](CC(=O)O)O[C@H](c2cccc(Cl)c2)[C@H]1c1ccc(Cl)cc1 (single isomer, unassigned) [Example 220, 2-((2R,5R,6R)-4-((S)-1-(tert-butylsulfonyl)pentan-3-yl)-6-(3-chlorophenyl)-5-(4-chlorophenyl)-3-oxomorpholin-2-yl)acetic acid or 2-((2S,5R,6R)-4-((S)-1-(tert-butylsulfonyl)pentan-3-yl)-6-(3-chlorophenyl)-5-(4-chlorophenyl)-3-oxomorpholin-2-yl)acetic acid] | 9
CC[C@@H](CS(=O)(=O)C(C)(C)C)N1C(=O)[C@@H](CC(=O)O)O[C@H](c2cccc(Cl)c2)[C@H]1c1ccc(Cl)cc1F (single isomer, unassigned) [Example 317, 2-((2R,5R,6R)-4-((S)-1-(tert-Butylsulfonyl)butan-2-yl)-5-(4-chloro-2-fluorophenyl)-6-(3-chlorophenyl)-3-oxomorpholin-2-yl)acetic acid or 2-((2S,5R,6R)-4-((S)-1-(tert-butylsulfonyl)butan-2-yl)-5-(4-chloro-2-fluorophenyl)-6-(3-chlorophenyl)-3-oxomorpholin-2-yl)acetic acid] | 3
CC[C@@H](CN(c1ccccc1F)S(=O)(=O)C1CC1)N1C(=O)[C@@H]([C@@H](C)C(=O)O)O[C@H](c2cccc(Cl)c2)[C@H]1c1ccc(Cl)cc1 (single isomer, unassigned) [Example 252] | 1
O=C1[C@@H](Cc2ncn[nH]2)O[C@H](c2cccc(Cl)c2)[C@@H](c2ccc(Cl)cc2)N1[C@H](CN(c1ccccc1F)S(=O)(=O)C1CC1)C1CC1 (single isomer, unassigned) [Example 396, N-((S)-2-((2R,5R,6R)-2-((1H-1,2,4-Triazol-5-yl)methyl)-6-(3-chlorophenyl)-5-(4-chlorophenyl)-3-oxomorpholino)-2-cyclopropylethyl)-N-(2-fluorophenyl)cyclopropanesulfonamide or N-((S)-2-((2S,5R,6R)-2-((1H-1,2,4-triazol-5-yl)methyl)-6-(3-chlorophenyl)-5-(4-chlorophenyl)-3-oxomorpholino)-2-cyclopropylethyl)-N-(2-fluorophenyl)cyclopropanesulfonamide] | 2
CN(C)C(=O)C[C@H]1O[C@H](c2cccc(Cl)c2)[C@@H](c2ccc(Cl)cc2)N([C@H](CN(c2ccccc2F)S(=O)(=O)C2CC2)C2CC2)C1=O (single isomer, unassigned) [Example 367, 2-((2R,5R,6R)-6-(3-Chlorophenyl)-5-(4-chlorophenyl)-4-((S)-1-cyclopropyl-2-(N-(2-fluorophenyl)cyclopropanesulfonamido)ethyl)-3-oxomorpholin-2-yl)-N,N-dimethylacetamide or 2-((2S,5R,6R)-6-(3-chlorophenyl)-5-(4-chlorophenyl)-4-((S)-1-cyclopropyl-2-(N-(2-fluorophenyl)cyclopropanesulfonamido)ethyl)-3-oxomorpholin-2-yl)-N,N-dimethylacetamide] | 4
CC(C)(C)S(=O)(=O)C[C@H](C1CC1)N1C(=O)[C@@H](CC(=O)O)O[C@H](c2ccc(F)c(Cl)c2)[C@H]1c1ccc(Cl)cc1 (single isomer, unassigned) [Example 321, 2-((2R,5R,6R)-4-((S)-2-(tert-Butylsulfonyl)-1-cyclopropylethyl)-6-(3-chloro-4-fluorophenyl)-5-(4-chlorophenyl)-3-oxomorpholin-2-yl)acetic acid or 2-((2S,5R,6R)-4-((S)-2-(tert-butylsulfonyl)-1-cyclopropylethyl)-6-(3-chloro-4-fluorophenyl)-5-(4-chlorophenyl)-3-oxomorpholin-2-yl)acetic acid] | 2
O=C(O)C[C@H]1O[C@H](c2cccc(Cl)c2)[C@@H](c2ccc(Cl)cc2)N([C@H](CS(=O)(=O)c2ccncc2)C2CC2)C1=O (single isomer, unassigned) [Example 287, 2-((2R,5R,6R)-6-(3-Chlorophenyl)-5-(4-chlorophenyl)-4-((S)-1-cyclopropyl-2-(pyridin-4-ylsulfonyl)ethyl)-3-oxomorpholin-2-yl)acetic acid or 2-((2S,5R,6R)-6-(3-chlorophenyl)-5-(4-chlorophenyl)-4-((S)-1-cyclopropyl-2-(pyridin-4-ylsulfonyl)ethyl)-3-oxomorpholin-2-yl)acetic acid] | 5
C[C@@H](CS(=O)(=O)C(C)(C)C)N1C(=O)[C@H](CC(=O)NCCO)O[C@H](c2cccc(Cl)c2)[C@H]1c1ccc(Cl)cc1 (single isomer, unassigned) [Example 233, 2-((2S,5R,6R)-4-((S)-1-(tert-butylsulfonyl)propan-2-yl)-6-(3-chlorophenyl)-5-(4-chlorophenyl)-3-oxomorpholin-2-yl)-N-(2-hydroxyethyl)acetamide or 2-((2R,5R,6R)-4-((S)-1-(tert-butylsulfonyl)propan-2-yl)-6-(3-chlorophenyl)-5-(4-chlorophenyl)-3-oxomorpholin-2-yl)-N-(2-hydroxyethyl)acetamide] | 6
CC(C)(O)CS(=O)(=O)C[C@H](C1CC1)N1C(=O)[C@@H](CC(=O)O)O[C@H](c2cccc(Cl)c2)[C@H]1c1ccc(Cl)cc1 (single isomer, unassigned) [Example 289, 2-((2R,5R,6R)-6-(3-Chlorophenyl)-5-(4-chlorophenyl)-4-((S)-1-cyclopropyl-2-((2-hydroxy-2-methylpropyl)sulfonyl)ethyl)-3-oxomorpholin-2-yl)acetic acid or 2-((2S,5R,6R)-6-(3-chlorophenyl)-5-(4-chlorophenyl)-4-((S)-1-cyclopropyl-2-((2-hydroxy-2-methylpropyl)sulfonyl)ethyl)-3-oxomorpholin-2-yl)acetic acid] | 2
CC(C)(C)S(=O)(=O)C[C@H](C1CC1)N1C(=O)[C@@H](Cc2cnn[nH]2)O[C@H](c2cccc(Cl)c2)[C@H]1c1ccc(Cl)cc1 (single isomer, unassigned) [Example 385, (2R,5R,6R)-2-((1H-1,2,3-Triazol-5-yl)methyl)-4-((S)-2-(tert-butylsulfonyl)-1-cyclopropylethyl)-6-(3-chlorophenyl)-5-(4-chlorophenyl)morpholin-3-one or (2S,5R,6R)-2-((1H-1,2,3-triazol-5-yl)methyl)-4-((S)-2-(tert-butylsulfonyl)-1-cyclopropylethyl)-6-(3-chlorophenyl)-5-(4-chlorophenyl)morpholin-3-one] | 4
CC[C@@H](CS(=O)(=O)C(C)(C)C)N1C(=O)[C@@H](CNC(=O)N(CC)CC)O[C@H](c2cccc(Cl)c2)[C@H]1c1ccc(Cl)cc1 (single isomer, unassigned) [Example 375, 3-(((2R,5R,6R)-4-((S)-1-(tert-Butylsulfonyl)butan-2-yl)-6-(3-chlorophenyl)-5-(4-chlorophenyl)-3-oxomorpholin-2-yl)methyl)-1,1-diethylurea or 3-(((2S,5R,6R)-4-((S)-1-(tert-butylsulfonyl)butan-2-yl)-6-(3-chlorophenyl)-5-(4-chlorophenyl)-3-oxomorpholin-2-yl)methyl)-1,1-diethylurea] | 55
CC(C)(C)S(=O)(=O)C[C@H](C1CC1)N1C(=O)[C@@H](CC(=O)O)O[C@H](c2cccc(Cl)c2)[C@H]1c1ccc(Cl)c(F)c1 (single isomer, unassigned) [Example 309, 2-((2R,5R,6R)-4-((S)-2-(tert-Butylsulfonyl)-1-cyclopropylethyl)-5-(4-chloro-3-fluorophenyl)-6-(3-chlorophenyl)-3-oxomorpholin-2-yl)acetic acid or 2-((2S,5R,6R)-4-((S)-2-(tert-butylsulfonyl)-1-cyclopropylethyl)-5-(4-chloro-3-fluorophenyl)-6-(3-chlorophenyl)-3-oxomorpholin-2-yl)acetic acid] | 1
CC(C)(C)S(=O)(=O)C[C@H](C1CC1)N1C(=O)[C@@H](CC(=O)NCC(F)(F)F)O[C@H](c2cccc(Cl)c2)[C@H]1c1ccc(Cl)cc1 (single isomer, unassigned) [Example 347, 2-((2R,5R,6R)-4-((S)-2-(tert-Butylsulfonyl)-1-cyclopropylethyl)-6-(3-chlorophenyl)-5-(4-chlorophenyl)-3-oxomorpholin-2-yl)-N-(2,2,2-trifluoroethyl)acetamide or 2-((2S,5R,6R)-4-((S)-2-(tert-butylsulfonyl)-1-cyclopropylethyl)-6-(3-chlorophenyl)-5-(4-chlorophenyl)-3-oxomorpholin-2-yl)-N-(2,2,2-trifluoroethyl)acetamide] | 4
C[C@@H](CS(=O)(=O)C(C)(C)C)N1C(=O)[C@@H](CC(=O)NS(C)(=O)=O)O[C@H](c2cccc(Cl)c2)[C@H]1c1ccc(Cl)cc1 (single isomer, unassigned) [Example 238] | 1
CC[C@@H](CS(=O)(=O)C(C)(C)C)N1C(=O)[C@@H](C[C@@H](O)CO)O[C@H](c2cccc(Cl)c2)[C@H]1c1ccc(Cl)cc1 (single isomer, unassigned) [Example 373] | 45
